From US9670469B2, “UDP-glycosyltransferase derived from ginseng and use thereof” (KOREA ADVANCED INSTITUTE OF SCIENCE AND TECHNOLOGY, priority 2012, dated 2017)

Legend:
PgUGT74A1 [1] = target: T1, PgUGT74A1 (Panax ginseng, UniProt A0A0A6ZFR4); experiment: In vitro glycosyltransferase assay with purified recombinant PgUGT74A1 and UDP-glucose; assay type: biochemical; conditions: for ginsenoside into which the substrate is converted by PgUGT74A1: 30 μg enzyme, 5 mM ginsenoside, 50 mM UDP-glucose, 35° C., 12 hours
T1 construct: GST (N); made in house; host or cells: E. coli BL21-CodonPlus (DE3)-RIL
T1 sequence (A0A0A6ZFR4 1-451): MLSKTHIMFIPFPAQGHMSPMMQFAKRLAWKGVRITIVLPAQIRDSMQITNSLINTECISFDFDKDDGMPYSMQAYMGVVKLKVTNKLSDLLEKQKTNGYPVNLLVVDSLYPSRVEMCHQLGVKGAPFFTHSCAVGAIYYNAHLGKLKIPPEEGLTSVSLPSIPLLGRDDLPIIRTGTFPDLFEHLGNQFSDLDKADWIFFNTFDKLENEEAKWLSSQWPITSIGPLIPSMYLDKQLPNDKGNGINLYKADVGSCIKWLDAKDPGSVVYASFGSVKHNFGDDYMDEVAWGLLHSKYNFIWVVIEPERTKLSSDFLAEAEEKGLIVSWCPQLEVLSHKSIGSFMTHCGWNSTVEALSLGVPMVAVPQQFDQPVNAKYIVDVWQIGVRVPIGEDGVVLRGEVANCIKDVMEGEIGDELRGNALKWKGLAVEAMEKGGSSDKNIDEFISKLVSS
Description: (§1) A glycosyltransferase assay was performed in a reaction buffer (10 mM PBS buffer, pH 7) containing the purified PgUGT74A1 or PgUGT94B1 (30 μg), a ginsenoside compound (5 mM) and UDP-glucose (50 mM).
(§2) The reaction mixture was incubated at 35° C. for 12 hours, and then the products were analyzed by thin-layer chromatography (TLC) or high performance liquid chromatography (HPLC).
(§3) TLC analysis was performed using a mobile phase (acetone:methanol:DDW=65:35:10 vol/vol) and a 60F254 silica gel plate (Merck, Germany). The resolved product on the TLC plate was detected by spraying the plate with 10% (vol/vol) sulfuric acid (H2SO4) and heating it at 110° C. for 5 minutes.
(§4) HPLC analysis was performed using ODS (2) C18 column (Phenomenex, USA). Water and acetonitrile gradient application time; and a component ratio are as follows: at a flow rate of 1 ml per minute for 0 minute, 68% water and 32% acetonitrile; 8 minutes, 35% water and 65% acetonitrile; 12 minutes, 0% water and 100% acetonitrile; 20 minutes, 0% water and 100% acetonitrile; 20.1 minutes, 68% water and 32% acetonitrile; and 28 minutes, 68% water and 32% acetonitrile.
(§5) Ginsenosides were detected by using a UV-detector (Younglin, Korea) at a wavelength of 203 nm.
First, the recombinant PgUGT of Example 1, PgUGT74A1, was incubated with 10 different types of ginsenosides (PPD, C-K, Rh2, F2, Rg3, Rd, Rg2, Rh1, F1 and PPT) in the presence of UDP-glucose, and the products converted by the recombinant PgUGT were analyzed by TLC.

PgUGT94B1 [2] = target: T2, PgUGT94B1 (Panax ginseng, UniProt A0A0A6ZFY4); experiment: In vitro glycosyltransferase assay with purified recombinant PgUGT94B1 and UDP-glucose; assay type: biochemical; conditions: 30 μg enzyme, 5 mM ginsenoside, 50 mM UDP-glucose, 35° C., 12 hours
T2 construct: GST (N); made in house; host or cells: E. coli BL21-CodonPlus (DE3)-RIL
T2 sequence (A0A0A6ZFY4 1-442): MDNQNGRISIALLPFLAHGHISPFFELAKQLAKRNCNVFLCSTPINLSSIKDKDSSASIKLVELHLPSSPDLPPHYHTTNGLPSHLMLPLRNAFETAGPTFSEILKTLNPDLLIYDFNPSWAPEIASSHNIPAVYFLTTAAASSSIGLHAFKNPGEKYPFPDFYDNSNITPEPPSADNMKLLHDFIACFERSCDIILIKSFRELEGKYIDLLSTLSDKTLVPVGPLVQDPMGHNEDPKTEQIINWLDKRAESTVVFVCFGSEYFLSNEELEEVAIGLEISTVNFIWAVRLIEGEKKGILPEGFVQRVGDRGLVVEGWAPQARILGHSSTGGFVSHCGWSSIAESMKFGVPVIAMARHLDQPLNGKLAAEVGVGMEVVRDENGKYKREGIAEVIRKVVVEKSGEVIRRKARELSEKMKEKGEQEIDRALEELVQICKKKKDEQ
Description: as §1, §2, §3, §4, §5
First, the recombinant PgUGT of Example 1, PgUGT94B1, was incubated with 10 different types of ginsenosides (PPD, C-K, Rh2, F2, Rg3, Rd, Rg2, Rh1, F1 and PPT) in the presence of UDP-glucose, and then the products converted by the recombinant PgUGT were analyzed by TLC.

PgUGT74A1 and PgUGT94B1 = experiment: Both enzymes reacted with the substrate in a single reaction tube, HPLC; assay type: biochemical, Panax ginseng; conditions: UDP-Glc
Description: PPD (upper panel) or C-K (lower panel) was incubated with both of PgUGT74A1 and PgUGT94B1 in the presence of UDP-Glc. Then the reaction mixture was analyzed by HPLC. […] Rg3 and Rd converted by the above two enzymes are marked as black triangles;
as §1, §2, §4, §5
In order to confirm this, the above two enzymes were reacted with PPD as a substrate in a single reaction tube. […] In addition, the two enzymes were reacted with C-K as a substrate in a single reaction tube.

ginseng = experiment: Concentrations of 4 major ginsenosides after spraying MeJA onto the leaf of ginseng; assay type: in vivo, Panax ginseng
Excerpt: MeJA was sprayed on the leaf everyday for a total of 5 days, and on the 6th day after the start of the treatment, samples were collected for the expression analysis. […] Error bars show a standard deviation (SD) of three biological replicates; and
(§6) The 15-month old ginseng grown in a growth chamber under LD conditions was collected, and MeJA was sprayed onto its leaves everyday for a total of 5 days. To analyze expression level of the ginsenoside biosynthetic genes, samples were collected on the 6th days. […] However, expression of PgPPTS was not induced by MeJA under the conditions of the present invention.
In this regard, the concentrations of 4 major ginsenosides were measured after spraying MeJA onto the leaf of ginseng. The treatment of MeJA increased the concentrations of two PPD-type ginsenosides, Rd and Rb1, by 1.55 and 1.14 times respectively (FIG. 6c). In addition, the treatment of MeJA increased the concentrations of two PPT-type ginsenosides, Rg1 and Re, by 2.61 and 1.45 times respectively.

[3] = tested on: PgPPTS (protopanaxatriol synthase); experiment: Quantitative RT-PCR of PgPPTS in ginseng leaf after MeJA spraying; assay type: in vivo, Panax ginseng; conditions: ginseng leaves, 200 μM MeJA sprayed everyday for 5 days, sampled 6th day; normalized to tubulin
Description: (§7) Total RNA was isolated from the leaf or root of 15-month-old ginseng using a spectrum plant total RNA kit (Sigma-Aldrich). 200 μM methyl jasmonate (MeJA) was sprayed onto the leaves of ginseng everyday for a total of 5 days, and samples were collected on the 6th day. The 1 μg of total RNA was used for cDNA synthesis.
(§8) Expression levels of different genes were examined by a quantitative RT-PCR using the primer sets listed in the following Table 2, and the results were normalized to the expression level of tubulin.
as §6

PgUGT74A1 [4] = experiment: Quantitative RT-PCR of PgUGT74A1 in ginseng leaf after MeJA spraying; assay type: in vivo, Panax ginseng; conditions: ginseng leaves, 200 μM MeJA sprayed everyday for 5 days, sampled 6th day; normalized to tubulin
Description: as §7, §8, §6

PgUGT94B1 [5] = experiment: Quantitative RT-PCR of PgUGT94B1 in ginseng leaf after MeJA spraying; assay type: in vivo, Panax ginseng; conditions: ginseng leaves, 200 μM MeJA sprayed everyday for 5 days, sampled 6th day; normalized to tubulin
Description: as §7, §8, §6

[6] = tested on: PgPPDS (protopanaxadiol synthase); experiment: Quantitative RT-PCR of PgPPDS in ginseng leaf after MeJA spraying; assay type: in vivo, Panax ginseng; conditions: ginseng leaves, 200 μM MeJA sprayed everyday for 5 days, sampled 6th day; normalized to tubulin
Description: as §7, §8, §6

[7] = tested on: PgDS (dammarenediol-II synthase); experiment: Quantitative RT-PCR of PgDS in ginseng leaf after MeJA spraying; assay type: in vivo, Panax ginseng; conditions: ginseng leaves, 200 μM MeJA sprayed everyday for 5 days, sampled 6th day; normalized to tubulin
Description: as §7, §8, §6

| SMILES | ginsenoside into which the substrate is converted by PgUGT74A1 (PgUGT74A1 [1]; HPLC) | ginsenoside into which the substrate is converted by PgUGT74A1 (PgUGT74A1 [1]; TLC) | ginsenoside into which the substrate is converted by PgUGT94B1 (PgUGT94B1 [2]; HPLC) | ginsenoside into which the substrate is converted by PgUGT74A1 plus PgUGT94B1 (PgUGT74A1 and PgUGT94B1) | ginsenoside into which the substrate is converted by PgUGT94B1 (PgUGT94B1 [2]; TLC) | also measured |
| --- | --- | --- | --- | --- | --- | --- |
| CC(C)=CCCC(C)(O)[C@H]1CC[C@]2(C)[C@@H]1[C@H](O)C[C@@H]1[C@@]3(C)CC[C@H](O)C(C)(C)[C@@H]3CC[C@]12C (stereo in doubt) [PPD, Protopanaxadiol] | ginsenoside Rh2 | ginsenoside Rh2 | did not convert | Rg3 |  | glycosylation by PgUGT74A1 of the hydroxyl groups at the C-12 and C-20 positions (PgUGT74A1 [1]; regioselectivity, positions other than C-3 of PPD): not glycosylated |
| CC(C)=CCC[C@](C)(O[C@@H]1O[C@H](CO)[C@@H](O)[C@H](O)[C@H]1O)[C@H]1CC[C@]2(C)[C@@H]1[C@H](O)C[C@@H]1[C@@]3(C)CC[C@H](O)C(C)(C)[C@@H]3CC[C@]12C [C-K, Compound K] |  | ginsenoside F2 | did not convert | Rd |  |  |
| CC/C=C\C[C@H]1C(=O)CC[C@@H]1CC(=O)OC [MeJA, Methyl (1R,2R)-3-Oxo-2-(2Z)-2-pentenyl-cyclopentaneacetate] |  |  |  |  |  | increase of the concentration of ginsenoside Rb1 (ginseng; PPD-type ginsenoside): 1.14 times; increase of the concentration of ginsenoside Rd (ginseng; PPD-type ginsenoside): 1.55 times; increase of the concentration of ginsenoside Re (ginseng; PPT-type ginsenoside): 1.45 times; increase of the concentration of ginsenoside Rg1 (ginseng; PPT-type ginsenoside): 2.61 times; expression of PgPPTS [3]: not induced; expression level of PgUGT74A1 (PgUGT74A1 [4]): higher expression level; expression level of PgUGT94B1 (PgUGT94B1 [5]): higher expression level; expression of PgPPDS [6]: enhanced; expression of PgDS [7]: enhanced |
| CC(C)=CCC[C@](C)(O)[C@H]1CC[C@]2(C)[C@@H]1[C@H](O)C[C@@H]1[C@@]3(C)CC[C@H](O)C(C)(C)[C@@H]3[C@@H](O)C[C@]12C [PPT, Protopanaxatriol] |  |  |  |  |  | glycosylation by PgUGT74A1 of the hydroxyl groups at the C-3, C-6, C-12 and C-20 positions (PgUGT74A1 [1]; regioselectivity, PPT): not glycosylated |
| CC(C)=CCC[C@](C)(O[C@@H]1O[C@H](CO)[C@@H](O)[C@H](O)[C@H]1O)[C@H]1CC[C@]2(C)[C@@H]1[C@H](O)C[C@@H]1[C@@]3(C)CC[C@H](O[C@@H]4O[C@H](CO)[C@@H](O)[C@H](O)[C@H]4O)C(C)(C)[C@@H]3CC[C@]12C [ginsenoside F2] | did not convert |  | Rd |  | ginsenoside Rd |  |
| CC(C)=CCC[C@](C)(O)[C@H]1CC[C@]2(C)[C@@H]1[C@H](O)C[C@@H]1[C@@]3(C)CC[C@H](O[C@@H]4O[C@H](CO)[C@@H](O)[C@H](O)[C@H]4O)C(C)(C)[C@@H]3CC[C@]12C [ginsenoside Rh2] | did not convert |  | ginsenoside Rg3 |  | ginsenoside Rg3 |  |
